Results from US10927107B2, “Phenyl [a]indole[2,3-g]quinolizine compounds, preparation method therefor, pharmaceutical composition, and applications thereof” (Shanghai Institute of Materia Medica, Chinese Academy of …, priority 2016, dated 2021).
Read-outs that look alike come from different tables or passages of the source.

Legend:
[1] = biological target: T1, α1A-adrenergic receptor (α1A-AR) (Homo sapiens, UniProt P35348); assay: Antagonistic activity on α1A-AR: calcium fluorescence in HEK293 cells stimulated with phenylephrine; format: cell-based; conditions: HEK293 cells expressing α1A-AR; agonist phenylephrine 30 nM; calcium fluorescence; read-out: α1A-AR/IC50
T1 construct: expressed in transfected cells; host or cells: HEK293
T1 sequence (P35348 1-466): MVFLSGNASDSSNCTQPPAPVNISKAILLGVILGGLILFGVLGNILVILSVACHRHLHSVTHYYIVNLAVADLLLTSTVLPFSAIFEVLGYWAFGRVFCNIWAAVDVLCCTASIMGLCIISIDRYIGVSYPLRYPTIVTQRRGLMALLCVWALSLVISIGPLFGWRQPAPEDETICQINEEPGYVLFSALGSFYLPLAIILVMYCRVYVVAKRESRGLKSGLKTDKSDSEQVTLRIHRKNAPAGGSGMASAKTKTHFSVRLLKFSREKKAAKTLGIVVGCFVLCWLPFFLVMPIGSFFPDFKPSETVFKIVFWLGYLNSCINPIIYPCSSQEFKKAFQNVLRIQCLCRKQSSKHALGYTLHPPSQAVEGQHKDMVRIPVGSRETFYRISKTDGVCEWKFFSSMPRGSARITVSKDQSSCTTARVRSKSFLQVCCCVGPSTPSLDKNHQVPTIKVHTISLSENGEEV
Protocol: HEK293 cells stably expressing α1A-adrenergic receptor (α1A-AR) and G protein […] were seeded in 96-well plates. After 24 hours of culture, the medium was removed, and 40 μL of Hank's balanced salt solution (HBSS: containing 5.4 mM KCl, 0.3 mM Na2HPO4, 0.4 mM KH2PO4, 4.2 mM NaHCO3, 1.3 mM CaCl2, 0.5 mM MgCl2, 0.6 mM MgSO4, 137 mM NaCl, 5.6 mM D-glucose and 250 μM sulfinpyridone, pH 7.4) containing 2 μM of MFluo-4AM was added to each well, and incubated for 45 minutes in an incubator. The dye was aspirated and 50 μL of HBSS containing a test compound or 1% DMSO (negative control) was added and incubated for 10 minutes at room temperature, and then read with Flex Station 3 microplate reader. At the specified time point, 25 μL of agonist phenylephrine (final concentration 30 nM) will be automatically added by the detector into the reaction system, and simultaneously stimulated with 485 nm light, and the change in intensity of fluorescence caused by the change in the intracellular calcium ion concentration was detected at 525 nm. […] The response rate of different doses of the same drug was analyzed by GraphPad Prism software to obtain a dose-response curve and the IC50 value was measured. Each experiment was performed in […].

HepG2 cells = assay: In vitro lipid-lowering activity: DiI-LDL uptake in HepG2 cells; format: cell-based; conditions: Homo sapiens, test compound 5 uM, 24 h, DiI-LDL 20 ug/ml, 3 h, FLU of sample group/FLU of blank group x100%, read-out: LDL uptake rate
Protocol: HepG2 cells were inoculated in 24-well plates, cultured in DMEM containing 10% FBS for 24 h or 48 h, and then transferred to DMEM containing 2% defatted serum and cultivated for 24 h. The old culture solution was discarded and replaced with new 2% defatted serum DMEM, and a test compound (the working concentration of which is 5 uM, triplicate for each sample) was added and incubated for 24 h. The old culture solution was abandoned and DMEM containing DiI-LDL (20 ug/ml) was added (300 ul/per 24 wells), incubated for 3 h. DMEM containing DiI-LDL was discarded, and cells were rinsed twice with PBS containing 0.4% BSA, and 3 times with PBS to remove excess DiI-LDL. Isopropanol was added (500 ul/per well of a 24-well plate), and was kept in darkness. After shaken for 20 minutes, 200 ul of supernatant was sucked to a black fluorescent plate, and fluorescence intensity (FLU) was detected at excitation light 520 nm and emission light 578 nm. The experimental results were calculated: LDL uptake rate=(FLU value of sample group to be tested/FLU value of blank group)×100%.

[2] = tested on: Syrian golden hamsters (high-fat diet, hyperlipidemia model); assay: In vivo lipid-lowering activity in high-fat diet golden hamsters; design: species or system Syrian golden hamster; conditions: for CHOL / HDL-C / LDL-C / TG: high-fat diet, serum
Protocol: After adaptively feeding Syrian golden hamsters (male, 80-100 g) for a week, all hamsters were fed with high-fat diet. Two weeks later, blood was collected from the orbital venous plexus, serum was separated, and levels of total cholesterol (TC), triglyceride (TG), high-density lipoprotein (HDL-C) and low-density lipoprotein (LDL-C) in serum were measured. They were evenly grouped according to blood lipid levels into […]: model control group, A1 intragastric administration group, A1 intraperitoneal administration group, A5 intragastric administration group, A5 intraperitoneal administration group, A55 intragastric administration group, A55 intraperitoneal administration group, B5 intragastric administration group, B5 intraperitoneal administration group, and the animals in each group were continued to be administered with high fat diet. […] […] Blood lipid levels and body weights were measured every 10 days. After three weeks, the animals were sacrificed and the liver was stored in a −80° C. refrigerator.

Rat pharmacokinetics [3] = format: in vivo; design: AUC(0-t) / AUC(0-inf): concentration or dose not given beside the values; conditions: in vivo; for AUC(0-inf): read-out: AUCINF—obs; for MRT inf: read-out: MRTINF—obs
Protocol: (§1) A1 10 μL of a plasma sample was taken in a centrifuge tube and 100 μL of methanol:acetonitrile (1:1, v/v) was added, vortexed for 1 min, centrifugated (14000 rpm) for 5 min, and 50 μL supernatant was taken, mixed with equal volume of water, and analysised after vortex mixing. The linear range of A1 is: 0.1-300 ng/mL for oral administration and 1-3000 ng/mL for intravenous injection.
as §1, with “A55” for “A1”, “0.3-3000” for “1-3000”

Rat pharmacokinetics [4] = assay: Rat pharmacokinetics; design: AUC(0-t) / AUC(0-inf): concentration or dose not given beside the values; conditions: in vivo, ip, i.p; for AUC(0-inf): read-out: AUCINF—obs; for MRT inf: read-out: MRTINF—obs
[5] = abdominal (intraperitoneal) 30 mg/kg once a day for three weeks
[6] = oral (intragastric) 30 mg/kg once a day for three weeks

Row | IC50 [1] [µM] | half-life (Rat pharmacokinetics [3]; ip, i.p) [h] | AUC(0-t) (Rat pharmacokinetics [3]; po, i.g) [µg·h/mL] | Cmax (Rat pharmacokinetics [3]; po, i.g) [ng/mL] | Tmax (Rat pharmacokinetics [3]; po, i.g) [h] | bioavailability (Rat pharmacokinetics [3]; po, i.g) [%] | half-life (Rat pharmacokinetics [3]; po, i.g) [h] | AUC(0-inf) (Rat pharmacokinetics [3]; po, i.g) [µg·h/mL] | MRT inf (Rat pharmacokinetics [3]; po, i.g) [h] | AUC(0-t) (Rat pharmacokinetics [4]) [µg·h/mL] | AUC(0-inf) (Rat pharmacokinetics [4]) [µg·h/mL] | MRT inf (Rat pharmacokinetics [4]) [h] | Compound | activity at 5 µM (HepG2 cells) [%] | TC ([2]; Dose 30, oral) [mmol/L] | also measured
1 | > 100 | – | – | – | – | – | – | – | – | – | – | – | COc1ccc2[nH]c3c(c2c1)CC1c2cc(OCc4ccc(F)cc4)c(OC)cc2CCN1C3c1ccc(F)cc1 (stereo not shown) [Example B5, 2-((4-fluorobenzyl)oxo)-8-(4-fluorophenyl)-3,12-dimethoxy-5,6,8,9,14,14a-hexahydroindole[3′,2′:4,5]pyridine[2,1-a]isoquinoline] | 134 | – | CHOL [2, 5]: 14.92 mmol/L; HDL-C [2, 5]: 2.90 mmol/L; LDL-C [2, 5]: 7.89 mmol/L; TG [2, 5]: 16.14 mmol/L; CHOL [2, 6]: 14.79 mmol/L; HDL-C [2, 6]: 3.99 mmol/L; LDL-C [2, 6]: 7.66 mmol/L; TG [2, 6]: 11.94 mmol/L; contents of cholesterol (CHOL), triglyceride (TG) and low density lipoprotein (LDL-C) in the blood ([2]; hyperlipidemia model): significantly reduced
2 | – | 18.5 | 3.96 | 297 | 4 | 57.2 | 6.53 | 4.34 | 7.74 | 3.47 | 9.36 | 15.3 | COc1ccc2[nH]c3c(c2c1)CC1c2cc(OCc4ccc(C(F)(F)F)cc4)c(OC)cc2CCN1C3 (stereo not shown) [Example C3, 3,12-dimethoxy-2-((4-(trifluoromethyl)benzyl)oxy)-5,6,8,9,14,14a-hexahydroindolo[3′,2′:4,5]pyridine[2,1-a]isoquinoline] | – | 25.08 ± 16.98 | TC ([2]; Dose 100, oral): 21.17 ± 3.89 mmol/L
3 | > 100 | 51.2 | 9.25 | 251 | 4 | 31 | 38.2 | 564 | 56.1 | 14.9 | 1120 | 66.4 | COc1ccc2[nH]c3c(c2c1)CC1c2cc(OC)c(OCc4ccc(C(F)(F)F)cc4)cc2CCN1C3 (stereo not shown) [Example C47, 2,12-dimethoxy-3-((4-(trifluoromethyl)benzyl)oxy)-5,6,8,9,14,14a-hexahydroindolo[3′,2′:4,5]pyridine[2,1-a]isoquinoline] | 150 | 19.73 ± 6.44 | Cmax (Rat pharmacokinetics [3]; ip, i.p): 276 ng/mL; Tmax (Rat pharmacokinetics [3]; ip, i.p): 24 h
